Measured values from PubChem BioAssay (NCI).
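Briefly, cells in 96-well plates were exposed to five compound concentrations for 48 h, and endpoints were estimated by linear interpolation. TGI marks complete inhibition of growth.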

Columns and labels:
Assay in all cases: growth of human tumour cells (NCI), 48 h
UACC-257 melanoma = system: UACC-257 melanoma
NCI/ADR-RES ovarian = system: NCI/ADR-RES ovarian
BT-549 breast = system: BT-549 breast
EKVX NSCLC = system: EKVX NSCLC
HL-60(TB) leukemia = system: HL-60(TB) leukemia
DU-145 prostate = system: DU-145 prostate
MCF7 breast = system: MCF7 breast
NCI-H522 lung = system: NCI-H522 lung
M14 melanoma = system: M14 melanoma
SK-OV-3 ovarian = system: SK-OV-3 ovarian
MDA-MB-231 breast = system: MDA-MB-231 breast

| SMILES | TGI (UACC-257 melanoma) [µM] | TGI (NCI/ADR-RES ovarian) [µM] | TGI (BT-549 breast) [µM] | TGI (EKVX NSCLC) [µM] | TGI (HL-60(TB) leukemia) [µM] | TGI (DU-145 prostate) [µM] | TGI (MCF7 breast) [µM] | TGI (NCI-H522 lung) [µM] | TGI (M14 melanoma) [µM] | TGI (SK-OV-3 ovarian) [µM] | TGI (MDA-MB-231 breast) [µM] |
| --- | --- | --- | --- | --- | --- | --- | --- | --- | --- | --- | --- |
| Cc1nc2ccccc2n1Cc1ccc(NC(=S)Nc2ccccc2)cc1 | > 100 | > 100 | > 100 | > 100 | > 100 | > 100 | > 100 | > 100 | > 100 | > 100 | > 100 |
| CC(Br)CN(CC(C)Br)c1ccc2c(c1)Cc1ccccc1-2 (stereo not drawn) | 28.1 | 38.4 | 35.1 | 30.3 | 15.6 | 23 | 19.6 | 21.2 | 24.3 | 31.1 | 26.8 |
| O=C1CCCC2=C1CC1=C(CCCC1=O)N2c1ccc(-c2ccccc2)cc1 | > 100 | > 100 | > 100 | > 100 | > 100 | > 100 | > 100 | > 100 | > 100 | > 100 | > 100 |
| CC(C)(C)[Si](C)(C)OC1CCOC1(O)c1ccccn1 (stereo not drawn) | > 100 | > 100 | > 100 | > 100 | > 100 | > 100 | > 100 | > 100 | > 100 | > 100 | > 100 |
| CC12CCC(=O)[C@@]1(C)CCCC2=O (stereo partly drawn) | > 100 | > 100 | > 100 | > 100 | > 100 | > 100 | > 100 | > 100 | > 100 | > 100 | > 100 |
| C[N+]1(CCCCN2c3ccccc3Sc3cc(N=[N+]=[N-])ccc32)CCN(C(=O)CCNC(=O)Cc2ccc(C(=O)c3ccccc3)cc2)CC1 | > 75.8 | > 91.1 | > 71.4 | > 81.5 | 35.5 | 35.1 | 68 | > 76.9 | > 72.9 | 62 | 81 |
| Cc1nn(C(=O)c2ccccc2O)c2c1C(c1ccc([N+](=O)[O-])cc1)SC(N)=N2 (stereo not drawn) | > 10 | > 10 | > 10 | > 10 | > 10 | > 10 | > 10 | > 10 | > 10 | > 10 | > 10 |
| Brc1ccc2[nH]cc(-c3csc(-c4c[nH]c5ccc(Br)cc45)n3)c2c1 | 9.05 | 6.29 | 18 | 3.93 | 12.7 | 6.89 | 12.9 | 3.39 | 2.87 | 8.09 | 3.38 |
| Oc1ccc(C[C@@H]2CN[C@H](Cc3ccc(O)c(Br)c3)CN2)cc1 | > 100 | > 100 | > 100 | > 100 | > 100 | > 100 | > 100 | > 100 | > 100 | > 100 | > 100 |
| CC1=CC(O)CC(C)(C)C1/C=C/C(C)=C/C=C/C(C)=C/C=C/C=C(C)/C=C/C=C(C)/C=C/C1=C(C)CC(O)CC1(C)C (stereo not drawn) | 59.1 | 59.8 | 33.1 | > 100 | > 100 | > 100 | 77.7 | 30 | 29.8 | > 100 | 30.1 |
| Fc1cccc(F)c1C1SCc2nc3cc(Cl)ccc3n21 (stereo not drawn) | > 60.6 | > 100 | > 45.6 | > 100 | 41.3 | > 100 | 34 | > 100 | > 100 | > 100 | > 100 |
| COC(=O)[C@@H]1[C@H]2CC[C@]3(C)[C@@H](OC(C)=O)CC[C@H]3[C@@H]2CC[C@H]1C1(C)SCCS1 | 53.3 | 57.1 | 46.2 | 74.4 | 36.8 | > 100 | 83 | 56.7 | 44 | > 100 | 62.1 |
| CCOC(=O)C(NC(=O)CC)(Nc1ccccc1F)C(F)(F)F (stereo not drawn) | > 100 | > 100 | > 100 | > 100 | > 100 | > 100 | > 100 | > 100 | > 100 | > 100 | > 100 |
| O=C1CCC(CCc2nc3ccccc3[nH]2)(c2ccccc2)C(=O)N1 (stereo not drawn) | > 100 | > 100 | > 100 | > 100 | > 100 | > 100 | > 100 | > 100 | > 100 | > 100 | > 100 |
| C=CCN(c1cc(OC)c2[nH]c(C(=O)O)c(C)c2c1[N+](=O)[O-])S(C)(=O)=O | > 100 | > 100 | > 100 | > 100 | > 100 | > 100 | > 100 | > 100 | > 100 | > 100 | > 100 |
| CN(C)CN1C(=O)/C(=N\n2c(-c3ccncc3)n[nH]c2=S)c2ccccc21 | 32.9 | > 100 | > 100 | > 100 | 37 | 81.6 | > 100 | 45.1 | 70.4 | > 100 | > 100 |
| Brc1ccc(/C(N=N/C(=N\Sc2ccccc2)c2ccc(Br)cc2)=N/Sc2ccccc2)cc1 | > 100 | > 100 | > 100 | > 100 | > 100 | > 100 | > 100 | > 100 | > 100 | > 100 | > 100 |
| CC1CCc2sc3[nH]c(=S)n(C)c(=O)c3c2C1 (stereo not drawn) | > 100 | > 100 | > 100 | 94.6 | 26.2 | > 100 | > 100 | 84.5 | 99.6 | > 100 | > 100 |
